From US7718653B2, “Pyrimidine derivatives for inhibiting Eph receptors” (AstraZeneca AB, priority 2007, dated 2010)

Target: T1, recombinant EphB4 (Homo sapiens, UniProt P54760)
T1 construct: amino acids 563-987; Swiss-Prot Acc; No. P54760; purchased ProQinase GmbH 0178-0000-3
T1 sequence (P54760 563-987): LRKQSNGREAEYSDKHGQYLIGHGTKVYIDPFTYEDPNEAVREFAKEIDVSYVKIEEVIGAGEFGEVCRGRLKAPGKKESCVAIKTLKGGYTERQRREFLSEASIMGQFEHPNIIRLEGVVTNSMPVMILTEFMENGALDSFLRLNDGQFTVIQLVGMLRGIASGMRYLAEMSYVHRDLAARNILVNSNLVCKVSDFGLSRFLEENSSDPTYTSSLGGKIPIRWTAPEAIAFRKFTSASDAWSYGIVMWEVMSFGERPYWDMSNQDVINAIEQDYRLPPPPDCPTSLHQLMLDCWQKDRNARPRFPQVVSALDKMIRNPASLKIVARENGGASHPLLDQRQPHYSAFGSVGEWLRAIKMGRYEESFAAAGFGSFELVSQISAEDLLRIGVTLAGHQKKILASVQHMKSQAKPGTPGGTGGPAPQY
Test: In vitro EphB4 enzyme assay (Alphascreen, phosphorylation of biotin-poly-GAT)
Type: biochemical
Conditions: method of compound preparation not stated; read-out: IC50 in assay A
Protocol: A) In vitro EphB4 Enzyme Assay
This assay detects inhibitors of EphB4-mediated phosphorylation of a polypeptide substrate using Alphascreen™ luminescence detection technology. Briefly, recombinant EphB4 was incubated with a biotinylated-polypeptide substrate (biotin-poly-GAT) in presence of magnesium-ATP. The reaction was stopped by addition of EDTA, together with streptavidin-coated donor beads which bind the biotin-substrate containing any phosphorylated tyrosine residues. Anti-phosphotyrosine antibodies present on acceptor beads bind to phosphorylated substrate, thus bringing the donor & acceptor beads into close proximity. Subsequent excitation of the donor beads at 680 nm generated singlet oxygen species that interact with a chemiluminescer on the acceptor beads, leading to light emission at 520-620 nm. The signal intensity is directly proportional to the level of substrate phosphorylation and thus inhibition is measured by a decrease in signal.
Aqueous Compound Preparation:
Acoustic Compound Preparation:
To ensure that each well contained a total of 120 nl DMSO the wells were all backfilled as required. […] The test range of compounds was 100× the required final concentration.
Assay plates were then incubated at room temperature for 1 hour.
For assays using compounds prepared via acoustic dispensing, the assay mix was adjusted such that the final assay volume of 12 ul contained the same concentration of reagent as 10 ul of assay mix used when aqueous compounds were tested.
The plates were sealed under natural lighting conditions, wrapped in aluminium foil and incubated in the dark for a further 20 hours.
The resulting assay signal was determined on the Perkin Elmer EnVision plate reader. The minimum value was subtracted from all values, and the signal plotted against compound concentration to generate IC50 data. The method used to generate the compound dilutions was recorded with the IC50 value in the database.

IC50: 243 nM
Structure (SMILES): c1cc(Nc2ccnc(Nc3cc(N4CCOCC4)nc(N4CCOCC4)c3)n2)c2cn[nH]c2c1 [Example 3, N2-(2,6-dimorpholinopyridin-4-yl)-N4-(1H-indazol-4-yl)pyrimidine-2,4-diamine]
